Structures can show the parent of a compound that is named as a salt.
Legend:
microtubules = conditions: in vitro / cells, in words; cited from earlier work
Solubility = assay type: physicochemical; conditions: read-out: Solubility
B-16 melanoma cells = experiment: In vitro B16 melanoma cell proliferation; assay type: cell-based; conditions: rank order
Protocol: These studies were conducted according to standard procedures as described in Donoso and Himes, Cancer Biochem. Biophysics, vol. 7, (1984), p. 133.

microtubule assembly = experiment: In vitro microtubule assembly kinetics; assay type: biochemical; conditions: rank order
Protocol: (A) In vitro Microtubule Assembly Kinetics Studies
The microtubule assembly study was conducted using both 2' and 7-derivatives according to the in vitro procedures disclosed, for example, in Mellado et al., Biochemical and Biophysical Research Communications, Vol. 124, No. 2 (1984), pp. 329-336; Magri et al., J. Org. Chem., 51, 797-802 (1986); and Parness et al., Biochemical and Biophysical Research Communications, Vol. 105, No. 3, pp. 1082-1091 (1982).

| SMILES | Effect on microtubules (microtubules) | other results |
| --- | --- | --- |
| COc1cc2c(c(OC)c1OC)-c1ccc(OC)c(=O)cc1[C@@H](NC(C)=O)CC2 [colchicine] | depolymerize microtubules in cells |  |
| CC(=O)O[C@H]1C(=O)[C@]2(C)[C@@H](OC(=O)CN(C)C)C[C@H]3OC[C@@]3(OC(C)=O)[C@H]2[C@H](OC(=O)c2ccccc2)[C@]2(O)C[C@H](OC(=O)[C@H](OC(=O)CN(C)C)[C@@H](NC(=O)c3ccccc3)c3ccccc3)C(C)=C1C2(C)C [dimethanesulphonic acid salt of 2'7-(N,N-dimethylglycyl)taxol] |  | solubility (Solubility): > 10000 µg/mL |
| CCN(CC)CCC(=O)O[C@@H](C(=O)O[C@H]1C[C@@]2(O)[C@@H](OC(=O)c3ccccc3)[C@@H]3[C@]4(OC(C)=O)CO[C@@H]4C[C@H](O)[C@@]3(C)C(=O)[C@H](OC(C)=O)C(=C1C)C2(C)C)[C@@H](NC(=O)c1ccccc1)c1ccccc1 [preferred compound 1, 2'(N,N-diethylaminopropionyl)taxol] |  | Order of effectiveness in B-16 melanoma cell proliferation study (B-16 melanoma cells): taxol>2'-(N,N-dimethylglycyl)taxol>2'-(N,N-diethylaminopropionyl)taxol>7-(N,N-dimethylglycyl)taxol; Ability to assemble microtubules (order) (microtubule assembly): taxol >7-(N,N-dimethylglycyl)taxol(11)>2'(N,N-diethylaminopropionyl)taxol(8)>2'(N,N-dimethylglycyl)taxol(2) |
| CC[C@]1(O)C[C@@H]2CN(CCc3c([nH]c4ccccc34)[C@@](C(=O)OC)(c3cc4c(cc3OC)N(C)[C@H]3[C@@](O)(C(=O)OC)[C@H](OC(C)=O)[C@]5(CC)C=CCN6CC[C@]43[C@@H]65)C2)C1 [vinblastine] | inhibit microtubule assembly and to depolymerize steady state microtubules |  |
| CC[C@]1(O)C[C@H]2CN(CCc3c([nH]c4ccccc34)[C@@](C(=O)OC)(c3cc4c(cc3OC)N(C=O)[C@H]3[C@@](O)(C(=O)OC)[C@H](OC(C)=O)[C@]5(CC)C=CCN6CC[C@]43[C@@H]65)C2)C1 [vincristine] | inhibit microtubule assembly and to depolymerize steady state microtubules |  |

From patent US4960790A, “Derivatives of taxol, pharmaceutical compositions thereof and methods for the preparation thereof” (University of Kansas, priority 1989, dated 1990)
